Measurements taken from paper PMC11705955, “Lack of activity of HIV-1 integrase strand-transfer inhibitors on recombinase activating gene (RAG) activity at clinically relevant concentrations” (Microbiology Spectrum, 2024).
Entries after “also recorded” stand apart in the source; their conditions may differ. Where two headings read alike, the source gives them in different places.

Legend:
[1] = 5-day cytotoxicity assay with Cell Titer Glo readout, MRC5; format: cell-based; settings: human
Source text: (§1) Supplemental Table S2. CC50 values for INSTIs in 5- day cytotoxicity as says with Cell Titer
(§2) Expi293F GALPC3 GALHEP HUH7 MRC5 MT4 PBMC PBMC
(§3) Kidney Prostate Hepatoma Hepatoma Lung T-cell line Primary Primary
(§4) (embryonic) cancer cell cell line cell line fibroblast cells

[2] = 5-day cytotoxicity assay with Cell Titer Glo readout, MT4; format: cell-based; settings: human
Source text: as §1, §2, §3, §4

[3] = system: murine mCherry-core RAG1 / mCherry-RAG2 V(D)J recombination in Expi293F cells; test: Extrachromosomal cell-based V(D)J recombination assay (GFP reporter, flow cytometry); settings: for Effect on percentage of GFP-positive cells / RAG recombination: across concentrations tested, 48 h post-transfection
Source text: To further evaluate the effect of HIV-1 integrase inhibitors on RAG activity in a cellular context, we optimized a novel extrachromosomal cell-based V(D)J recombination assay, enabling assessment of multiple compounds in a dose–response manner by flow cytometry ([33]). The schematic of FL murine RAG1 and RAG2 proteins, including the active site residues (DDE motif) in RAG1 and catalytically essential core regions of each protein, are shown in Fig. 5A. The cell-based assay used vectors that encode for the core RAG1 protein (instead of the FL version) and FL murine RAG2 expressed as C-terminal fusions to mCherry, termed mCherry-core RAG1 and mCherry-RAG2. The core regions of each RAG protein are sufficient to catalyze V(D)J recombination, whereas the non-core regions function to regulate the recombination reaction ([13]). […] The consensus RSS used in this assay contains a conserved heptamer and nonamer separated by 12 or 23 non-conserved bp (12RSS and 23RSS) (Fig. 5B). A general schematic of the design for the plasmid substrate with the 12RSS and 23RSS orientations before and after V(D)J recombination is presented in Fig. 5C. More specifically, the plasmid substrate pMAXgfp-INV was designed with a 12RSS and a 23RSS flanking each side of the Pontellina plumata green fluorescent protein gene (termed maxGFP), where the gene is in an inverted orientation relative to the CMV promoter (Fig. 5D). The RSSs are positioned in a co-linear orientation, such that successful V(D)J recombination activity will result in inversion of the maxGFP gene to place it in a transcriptionally active orientation with resulting expression of GFP. Detection of GFP-expressing cells using microscopy and flow cytometry was used as a direct readout of V(D)J recombination activity.
For the recombination assay, the pMAXgfp-INV plasmid substrate and RAG1/RAG2 expression vectors (mCherry-core RAG1 and mCherry-RAG2) were transiently transfected into Expi293 cells in the absence or presence of integrase inhibitors and were assessed via microscopy and flow cytometry. The fluorescence signal from the mCherry-tag is used to assess transfection efficiency of RAG1/RAG2 vectors (Fig. 6A). We observed that transfection of the pMAXgfp-INV substrate into Expi293 cells with RAG1/RAG2 expression vectors yielded robust GFP expression 48 h post-transfection in the cells treated with vehicle control (0.1% dimethyl sulfoxide [DMSO]) (Fig. 6A). […] NU7026 inhibits double-strand break repair, which is a necessary step after DNA cleavage by RAG enzymes, and thus serves as an indirect inhibitor of RAG activity ([35]).
To test the effect of HIV-1 integrase inhibitors on V(D)J recombination activity, we optimized an extrachromosomal cell-based V(D)J recombination assay ([33]). Briefly, Expi293 cells were plated at 1 × 10^6 cells/mL in six-well plates in Gibco Expi293 expression media the day before transfection. The next day, the Expi293 cells were co-transfected with three separate vectors, pMAXgfp-INV plasmid substrate, mCherry-core RAG1, and mCherry-RAG2 expression vectors with a 4:1 transfection reagent:DNA ratio using ExpiFectamine 293 transfection reagent (Gibco). Vehicle or candidate inhibitors were added to cell samples 2 h after transfection, with six different concentrations of each inhibitor added to separate wells. Fivefold dilutions for each inhibitor starting from 10 µM were tested.
Experiments were performed with six separate inhibitors in at least three independent experiments. Two negative control conditions for recombination activity were performed in parallel and include (i) transfections in the presence of NU7026 at 30 and 50 µM (Abcam) and (ii) using a modified pMAXgfp-INV substrate containing two 12RSSs (instead of one 12RSS and one 23RSS) that is inefficiently recombined by the RAG proteins. Vehicle control (0.1% DMSO) served as the positive control for GFP expression. The fluorescence signal from the mCherry tag was used to assess transfection efficiency. […]

[4] = 5-day cytotoxicity assay with Cell Titer Glo readout, GALHEPG2; format: cell-based; settings: human
Source text: as §1, §2, §3, §4

[5] = 5-day cytotoxicity assay with Cell Titer Glo readout, GALPC3; format: cell-based; settings: human
Source text: as §1, §2, §3, §4

[6] = 5-day cytotoxicity assay with Cell Titer Glo readout, HUH7; format: cell-based; settings: human
Source text: as §1, §2, §3, §4

[7] = 5-day cytotoxicity assay with Cell Titer Glo readout, PBMC; format: cell-based
Source text: as §1, §2, §3, §4

[8] = system: PBMC primary cells; test: as above; format: cell-based
Source text: as §1, §2, §3, §4

Row | Compound | CC50 at 5 day [1] | CC50 at 5 day [2] | Effect on percentage of GFP-positive cells / RAG recombination [3] | CC50 at 5 day [4] | CC50 at 5 day [5] | CC50 at 5 day [6] | CC50 at 5 day ([7]; CC50) | CC50 ([8]; 5 day) | CC50 at 5 day ([1]; MRC5, 5-day, Cell Titer Glo, read-out: CC50) | CC50 at 5 day ([2]; MT4, 5-day, Cell Titer Glo, read-out: CC50) | CC50 at 5 day ([4]; GALHEPG2, 5-day, Cell Titer Glo, read-out: CC50) | CC50 at 5 day ([5]; GALPC3, 5-day, Cell Titer Glo, read-out: CC50) | CC50 at 5 day ([6]; HUH7, 5-day, Cell Titer Glo, read-out: CC50) | CC50 at 5 day ([7]; PBMC Lot1, 5-day, Cell Titer Glo, read-out: CC50) | CC50 ([8]; PBMC Lot2, 5-day, Cell Titer Glo, read-out: CC50) | IC50 ([3]; Mus musculus, Expi293F, compound added 2 h after transfection, read 48 h post-transfection, serum-free media, read-out: IC50 in cellular V(D)J recombination assay (% GFP-positive cells))
1 | COc1cc2c(cc1Cc1cccc(Cl)c1F)c(=O)c(C(=O)O)cn2[C@H](CO)C(C)C [EVG, elvitegravir] | 14.3 µM | 3.75 µM | do not show inhibitory activity | 9.02 µM | 20.8 µM | 20.4 µM | 14.6 µM | 14.1 µM |  |  |  |  |  |  |  | 
2 | Cc1nnc(C(=O)NC(C)(C)c2nc(C(=O)NCc3ccc(F)cc3)c(O)c(=O)n2C)o1 [RAL, raltegravir] |  |  | did not observe a reduction in percentage of GFP-positive cells; also recorded: do not show inhibitory activity |  |  |  |  |  | > 44.4 µM | > 50 µM | > 44.4 µM | > 44.4 µM | > 44.4 µM | > 44.3 µM | > 44.3 µM | 
3 | C[C@@H]1CCO[C@H]2Cn3cc(C(=O)NCc4ccc(F)cc4F)c(=O)c(O)c3C(=O)N12 [DTG, dolutegravir] | 38.2 µM | 7.53 µM | did not observe a reduction in percentage of GFP-positive cells; also recorded: do not show inhibitory activity | > 44.4 µM | > 44.4 µM | 28.7 µM | 28.4 µM | 17.9 µM |  |  |  |  |  |  |  | 
4 | C[C@H]1CO[C@@H]2Cn3cc(C(=O)NCc4ccc(F)cc4F)c(=O)c(O)c3C(=O)N12 [CAB, cabotegravir] | 28.1 µM | 5.25 µM | did not observe a reduction in percentage of GFP-positive cells; also recorded: do not show inhibitory activity | 37.9 µM | > 44.4 µM | 21.5 µM | 30 µM | 29.5 µM |  |  |  |  |  |  |  | 
5 | O=C(NCc1c(F)cc(F)cc1F)c1cn2c(c(O)c1=O)C(=O)N1[C@H]3CC[C@H](C3)O[C@@H]1C2 [BIC, bictegravir] | > 44.4 µM | 2.59 µM | did not observe a reduction in percentage of GFP-positive cells; also recorded: do not show inhibitory activity | 17.4 µM | > 44.4 µM | 38 µM | 28.5 µM | 24.2 µM |  |  |  |  |  |  |  | 
6 | O=C(/C=C(\O)c1nnn[nH]1)c1c[nH]c2ccc(Cl)cc12 [p8, 5-CITEP] | > 44.4 µM | > 50 µM |  | > 44.4 µM | > 44.4 µM | > 44.4 µM | > 44.3 µM | > 44.3 µM |  |  |  |  |  |  |  | > 50 µM
